“And” between values parts separate entries of the source, which are not always exact repeats. Equal values may be shown once.
Tested on: Dahl salt-sensitive rats
Experiment: Systolic blood pressure of Dahl salt-sensitive rats on high salt diet, PTB in drinking water (tail-cuff plethysmography)
Type: in vivo, rat
Settings: for Average systolic blood pressure: 13.5 grams/liter PTB in drinking water
Description: An experimental study was undertaken to assess the effect on blood pressure of oral PTB given in drinking water to Dahl salt-sensitive rats, which are known to experience an increase in blood pressure upon administration of salt. In this study, salt was administered in the diet to two groups of rats, a placebo group that received salt but not PTB and an active group that received both salt and PTB in drinking water.
The study was conducted as follows: Twenty-four Dahl salt-sensitive male rats were fed regular rat chow containing 0.24% (w/w) sodium chloride for an acclimatization period. The rats were then switched to a high salt diet (4% NaCl and 1.5% KCl) and were randomly divided into two groups of twelve rats each—an active group supplied with drinking water containing 13.5 grams/liter PTB (prepared as described in Example 2, and a placebo group receiving ordinary drinking water. Food and water were available ad libitum to both groups over the 28-day course of the study. The systolic blood pressure of each rat was determined twice a week over the course of the study by the tail-cuff plethysmography method. Each recorded blood pressure was the average of 3-5 individual readings.
Systolic blood pressure rose progressively after high-salt intake in the placebo group, reaching 172±4 mm Hg at day 28.

## NCCS(=O)(=O)O.O=C([O-])O.[K+] [PTB, potassium taurate bicarbonate]
By the end of the 28-day study, PTB in drinking water, high salt diet
  Blunting of the expected rise in systolic blood pressure (active vs placebo group): 21 mm Hg
Day 3 after administration, high salt diet (4% NaCl and 1.5% KCl)
  Average systolic blood pressure: 114 mm Hg
Day 7 after administration, high salt diet
  Average systolic blood pressure: 126 mm Hg
Day 10 after administration, high salt diet
  Average systolic blood pressure: 133 mm Hg
Day 14 after administration, high salt diet
  Average systolic blood pressure: 134 mm Hg
Day 17 after administration, high salt diet
  Average systolic blood pressure: 138±2 mm Hg and 138 mm Hg
Day 21 after administration, high salt diet
  Average systolic blood pressure: 150 mm Hg
Day 24 after administration, high salt diet
  Average systolic blood pressure: 143±3 mm Hg and 143 mm Hg
Day 28 after administration, high salt diet
  Average systolic blood pressure: 151±3 mm Hg and 151 mm Hg

Source: patent publication US20040176442A1, “Potassium taurate bicarbonate and ascorbate” (priority 2003, published 2004)
